# Data: ChEMBL document CHEMBL3124755, “Synthesis and tumor inhibitory activity of novel coumarin analogs targeting angiogenesis and apoptosis” (Eur J Med Chem, 2014)
# Active and inactive are the calls of the source. The calls are words filed in the database; no cut-off is given here.
# Assays:
# [1] = (§1) Cytotoxicity against mouse DLA cells after 48 hrs by LDH release assay; type: functional, cell-based
# [2] = Cytotoxicity against mouse DLA cells after 48 hrs by MTT assay; type: functional, cell-based
# [3] = Cytotoxicity against mouse DLA cells after 48 hrs by trypan blue exclusion assay; type: functional, cell-based
# [4] = Cytotoxicity against mouse EAC cells after 48 hrs by MTT assay; type: functional, cell-based; conditions: Ehrlich
# [5] = (§2) Cytotoxicity against mouse EAC cells after 48 hrs by LDH release assay; type: functional, cell-based; conditions: Ehrlich
# [6] = Cytotoxicity against mouse EAC cells after 48 hrs by trypan blue exclusion assay; type: functional, cell-based; conditions: Ehrlich
# Ehrlich [7] = experiment: Antitumor activity against mouse EAC cells allografted in Swiss albino mouse assessed as condensed nucleus in tumor cells at 75 mg/kg, ip 3 doses administered every alternate days after three days of tumor growth; type: functional, organism-based; parameters: dose 75 mg/kg
# Ehrlich [8] = experiment: Antitumor activity against mouse EAC cells allografted in Swiss albino mouse assessed as DNA fragmentation in tumor cells at 75 mg/kg, ip 3 doses administered every alternate days after three days of tumor growth; type: functional, organism-based; parameters: dose 75 mg/kg
# Ehrlich [9] = experiment: Antitumor activity against mouse EAC cells allografted in Swiss albino mouse assessed as formation of apoptotic bodies in tumor cells at 75 mg/kg, ip 3 doses administered every alternate days after three days of tumor growth by Giemsa staining; type: functional, organism-based; parameters: dose 75 mg/kg
# Ehrlich [10] = experiment: Antitumor activity against mouse EAC cells allografted in Swiss albino mouse assessed as membrane blebbing of tumor cells at 75 mg/kg, ip 3 doses administered every alternate days after three days of tumor growth by Giemsa staining; type: functional, organism-based; parameters: dose 75 mg/kg
# Ehrlich [11] = experiment: Antitumor activity against mouse EAC cells allografted in Swiss albino mouse assessed as irregular tumor cell shape at 75 mg/kg, ip 3 doses administered every alternate days after three days of tumor growth by Giemsa staining; type: functional, organism-based; parameters: dose 75 mg/kg
# Ehrlich [12] = experiment: Antitumor activity against mouse EAC cells allografted in Swiss albino mouse assessed as tumor cell shrinkage at 75 mg/kg, ip 3 doses administered every alternate days after three days of tumor growth; type: functional, organism-based; parameters: dose 75 mg/kg
# Chorioallantoic membrane [13] = experiment: Ex vivo antiangiogenic activity in 2 days fertilized chicken embryo chorioallantoic membrane model assessed as inhibition of rVEGF165-induced angiogenesis at 10 uM after 72 hrs by photographic analysis relative to control; type: functional, tissue-based; conditions: Gallus gallus
# Chorioallantoic membrane [14] = experiment: In vivo antiangiogenic activity in 12 days fertilized chicken embryo chorioallantoic membrane model assessed as inhibition of rVEGF165-induced angiogenesis at 10 uM by photographic analysis relative to control; type: functional, organism-based; conditions: Gallus gallus
# Mus musculus [15] = experiment: Antiangiogenic activity in mouse EAC cells allografted Swiss albino mouse model assessed as decrease in microvessel density in peritoneum at 75 mg/kg, ip 3 doses administered every alternate days after three days of tumor growth by hematoxylin and eosin staining method; type: functional, organism-based; parameters: dose 75 mg/kg; conditions: Ehrlich
# Mus musculus [16] = experiment: Antiangiogenic activity in mouse EAC cells allografted Swiss albino mouse model assessed as decrease in peritoneal angiogenesis at 75 mg/kg, ip 3 doses administered every alternate days after three days of tumor growth; type: functional, organism-based; parameters: dose 75 mg/kg; conditions: Ehrlich
# Mus musculus [17] = experiment: Toxicity in Swiss albino mouse assessed as urea level at 75 mg/kg, ip administered for 10 days (reference value: 42 +/- 2.78 mg/dl); type: organism-based; parameters: dose 75 mg/kg, route intraperitoneal; conditions: in vivo, 240 h
# Mus musculus [18] = experiment: Toxicity in Swiss albino mouse assessed as creatinine level at 75 mg/kg, ip administered for 10 days (reference value: 0.59 +/- 1.05 mg/dl); type: organism-based; parameters: dose 75 mg/kg, route intraperitoneal; conditions: in vivo, 240 h
# Mus musculus [19] = experiment: Toxicity in Swiss albino mouse assessed as alkaline phosphatase level at 75 mg/kg, ip administered for 10 days (reference value: 128.55 +/- 2.55 IU/L); type: organism-based; parameters: dose 75 mg/kg, route intraperitoneal; conditions: in vivo, 240 h
# Mus musculus [20] = experiment: Toxicity in Swiss albino mouse assessed as change in liver morphology at 75 mg/kg, ip administered for 10 days relative to untreated control; type: organism-based; parameters: dose 75 mg/kg, route intraperitoneal; conditions: in vivo, 240 h
# Mus musculus [21] = experiment: Toxicity in Swiss albino mouse assessed as change in spleen morphology at 75 mg/kg, ip administered for 10 days relative to untreated control; type: organism-based; parameters: dose 75 mg/kg, route intraperitoneal; conditions: in vivo, 240 h
# DLA [22] = experiment: Antitumor activity against mouse DLA cells allografted in Swiss albino mouse assessed as tumor regression at 75 mg/kg, ip administered alternate days total of 10 doses measured on day 35 relative to untreated control; type: functional, organism-based; parameters: dose 75 mg/kg
# Ehrlich [23] = experiment: Antitumor activity against mouse EAC cells allografted in Swiss albino mouse assessed as inhibition of tumor growth at 75 mg/kg, ip 3 doses administered every alternate days after three days of tumor growth; type: functional, organism-based; parameters: dose 75 mg/kg
# Ehrlich [24] = experiment: Antitumor activity against ip dosed mouse EAC cells allografted in Swiss albino mouse assessed as decrease in body weight administered 3 doses every alternate days after three days of tumor growth; type: functional, organism-based
# Ehrlich [25] = experiment: Antitumor activity against mouse EAC cells allografted in Swiss albino mouse assessed as decrease in ascites fluid secretion at 75 mg/kg, ip 3 doses administered every alternate days after three days of tumor growth; type: functional, organism-based; parameters: dose 75 mg/kg
# DLA [26] = experiment: as §1; type: functional, cell-based
# Ehrlich [27] = experiment: as §2; type: functional, cell-based
# [28] = Antitumor activity against mouse EAC cells allografted in Swiss albino mouse assessed as increase in life span at 75 mg/kg, ip 3 doses administered every alternate days after three days of tumor growth (reference value: 10 days); type: functional, Ehrlich; conditions: route intraperitoneal
# [29] = Antitumor activity against mouse EAC cells allografted in Swiss albino mouse model assessed as increase in body weight at 75 mg/kg, ip 3 doses administered every alternate days after three days of tumor growth measured after 10 days; type: functional, Ehrlich; conditions: route intraperitoneal
# [30] = Antitumor activity against mouse DLA cells allografted in Swiss albino mouse assessed as increase in lifespan at 75 mg/kg, ip administered alternate days total of 10 doses relative to untreated control; type: functional; conditions: route intraperitoneal
# DLA [31] = experiment: Antitumor activity against mouse DLA cells allografted in Swiss albino mouse assessed as inhibition of tumor growth measuring tumor volume at 75 mg/kg, ip administered alternate days total of 10 doses relative to untreated control; type: functional, organism-based; parameters: dose 75 mg/kg
smiles,measurement,setting,value
Cc1ccc(OCC(=O)NNC(=O)c2cc3ccccc3oc2=O)c(C(=O)c2cccc(Br)c2)c1,IC50,[1],69.8 µM
same,IC50,[2],68.5 µM
same,IC50,[3],71.9 µM
same,IC50,[4],66.4 µM
same,IC50,[5],68.1 µM
same,IC50,[6],68.5 µM
Cc1ccc(OCC(=O)NNC(=O)c2cc3ccccc3oc2=O)c(C(=O)c2ccc(Cl)cc2)c1,IC50,[1],60.4 µM
same,IC50,[2],59.1 µM
same,IC50,[3],61.6 µM
same,IC50,[4],56.6 µM
same,IC50,[5],58 µM
same,IC50,[6],57.8 µM
O=c1[nH]cc(F)c(=O)[nH]1 [FLUOROURACIL],IC50,[1],15.8 µM
same,IC50,[2],15.7 µM
same,IC50,[3],14.3 µM
same,IC50,[4],14.3 µM
same,IC50,[5],16.3 µM
same,IC50,[6],16.4 µM
Cc1ccc(OCC(=O)NNC(=O)c2cc3ccccc3oc2=O)c(C(=O)c2cccc(Cl)c2)c1,IC50,[1],67.4 µM
same,IC50,[2],65.5 µM
same,IC50,[3],68.6 µM
same,IC50,[4],64.9 µM
same,IC50,[5],65.4 µM
same,IC50,[6],67.3 µM
Cc1ccc(OCC(=O)NNC(=O)c2cc3ccccc3oc2=O)c(C(=O)c2ccccc2Cl)c1,IC50,[1],54.4 µM
same,IC50,[2],53.8 µM
same,IC50,[3],54.8 µM
same,IC50,[4],45.2 µM
same,IC50,[5],47.6 µM
same,IC50,[6],48.4 µM
Cc1ccc(C(=O)c2cc(C)ccc2OCC(=O)NNC(=O)c2cc3ccccc3oc2=O)cc1,IC50,[1],87.2 µM
same,IC50,[2],84.6 µM
same,IC50,[3],87.3 µM
same,IC50,[4],78.1 µM
same,IC50,[5],81.4 µM
same,IC50,[6],82.6 µM
COc1ccc(C(=O)c2cc(C)ccc2OCC(=O)NNC(=O)c2cc3ccccc3oc2=O)cc1,IC50,[1],43.4 µM
same,IC50,[2],42 µM
same,IC50,[3],43.5 µM
same,IC50,[4],38.4 µM
same,IC50,[5],41.2 µM
same,IC50,[6],41.2 µM
Cc1ccc(OCC(=O)NNC(=O)c2cc3ccccc3oc2=O)c(C(=O)c2ccc(Br)cc2)c1,IC50,[1],95.3 µM
same,IC50,[2],92.2 µM
same,IC50,[3],95.5 µM
same,IC50,[4],87.3 µM
same,IC50,[5],89 µM
same,IC50,[6],91.1 µM
Cc1ccc(OCC(=O)NNC(=O)c2cc3ccccc3oc2=O)c(C(=O)c2ccccc2Br)c1,Activity,Ehrlich [7],Active
same,Activity,Ehrlich [8],Active
same,Activity,Ehrlich [9],Active
same,Activity,Ehrlich [10],Active
same,Activity,Ehrlich [11],Active
same,Activity,Ehrlich [12],Active
same,inhibition,Chorioallantoic membrane [13],Active
same,inhibition,Chorioallantoic membrane [14],Active
same,Activity,Mus musculus [15],Active
same,Activity,Mus musculus [16],Active
same,Activity,Mus musculus [17],39 mg/dL
same,Activity,Mus musculus [18],0.5 mg/dL
same,Activity,Mus musculus [19],132.65 IU/L
same,Activity,Mus musculus [20],Non-toxic
same,Activity,Mus musculus [21],Non-toxic
same,Activity,DLA [22],Active
same,TGI,Ehrlich [23],Active
same,Activity,Ehrlich [24],Dose-dependent effect
same,Activity,Ehrlich [25],Active
same,IC50,[1],10.6 µM
same,Activity,DLA [26],Dose-dependent effect
same,IC50,[2],10 µM
same,IC50,[3],10 µM
same,IC50,[4],8 µM
same,IC50,[5],9.4 µM
same,Activity,Ehrlich [27],Dose-dependent effect
same,IC50,[6],9 µM
same,Time,[28],23 days
same,Activity,[29],10%
same,fold change (FC),[30],3
same,TGI,DLA [31],Active
Cc1ccc(OCC(=O)NNC(=O)c2cc3ccccc3oc2=O)c(C(=O)c2ccccc2)c1,IC50,[1],87 µM
same,IC50,[2],86.4 µM
same,IC50,[3],89.1 µM
same,IC50,[4],78.4 µM
same,IC50,[5],81.1 µM
same,IC50,[6],86.5 µM
Cc1ccc(OCC(=O)NNC(=O)c2cc3ccccc3oc2=O)c(C(=O)c2ccc(F)cc2)c1,IC50,[1],45.7 µM
same,IC50,[2],43.4 µM
same,IC50,[3],46.1 µM
same,IC50,[4],39.7 µM
same,IC50,[5],40.8 µM
same,IC50,[6],43.4 µM
